Starred links: 1 amine or outer side, 2 acyl side, 3 side chain; linkers in the order of their positions; H or OH if unused. Positions of bridges follow the written chain, without caps; N, C: chain ends. Non-standard residues stand in square brackets, D forms with d. Residues, ends and D or L forms follow the SMILES beside them. X49 = O=C([C@H](CNC[C@@H](O)[C@H](O)[C@@H](O)[C@@H](O)[C@H](O)CO)N[*:1])[*:2]; X40 = O=C([C@H](CNC1[C@@H](O)[C@@H](O)[C@@H](O)[C@H](O)[C@H]1O)N[*:1])[*:2]; X51 = O=C([C@H](CCNC[C@@H](O)[C@@H](O)[C@H](O)[C@H](O)C(O)CO)N[*:1])[*:2]; X50 = O=C([C@H](CNC[C@@H](O)[C@@H](O)[C@H](O)[C@H](O)C(O)CO)N[*:1])[*:2]; X62 = O=C([C@H](CCNC[C@H](O)[C@H](O)[C@@H](O)[C@@H](O)CO)N[*:1])[*:2]; X35 = O=C([C@H](CNC[C@H](O)[C@H](O)[C@@H](O)[C@@H](O)CO)N[*:1])[*:2]; X8 = O=C([C@H](CNC[C@@H](O)[C@@H](O)[C@@H](O)[C@H](O)CO)N[*:1])[*:2]; X3 = O=C([C@H](CNC[C@@H](O)[C@@H](O)[C@H](O)[C@H](O)CO)N[*:1])[*:2]; Trp(1-CH2COOH) = N[C@@H](Cc1cn(CC(=O)O)c2ccccc12)C(=O)O; Hyp = O=C(O)[C@@H]1C[C@@H](O)CN1; NMeNle = CCCC[C@H](NC)C(=O)O; NMeA = CN[C@@H](C)C(=O)O; Dab = NCC[C@H](N)C(=O)O
Molecular target: T1, PD-1/PD-L1 (Homo sapiens, UniProt Q9NZQ7)
T1 construct: TVMV protease site (linker) (C); made in house; host or cells: HEK293T cells
T1 sequence (Q9NZQ7 18-239): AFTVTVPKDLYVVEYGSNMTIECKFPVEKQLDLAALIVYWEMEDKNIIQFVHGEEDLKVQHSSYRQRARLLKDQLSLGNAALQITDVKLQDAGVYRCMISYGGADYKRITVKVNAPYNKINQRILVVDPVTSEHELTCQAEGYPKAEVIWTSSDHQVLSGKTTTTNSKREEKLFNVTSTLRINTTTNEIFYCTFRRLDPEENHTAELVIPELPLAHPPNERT
Experiment: PD-1/PD-L1 Homogenous Time-Resolved Fluorescence (HTRF) binding assay
Details: PD-L1-His 10 nM, PD-1-Ig 20 nM
How it was run: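 Compounds preincubated 15 min with PD-L1-His (residues 18-239, 10 nM) in dPBS with 0.1% BSA, 0.05% Tween-20, then PD-1-Ig (residues 25-167, 20 nM) for 15 min. Eu-cryptate anti-Ig (1 nM) and APC anti-His (20 nM) equilibrated 30 min; 665/620 nm ratio read, IC50 derived.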

Structure (SMILES)	IC50 [nM]
CCCC[C@H]1C(=O)N(C)[C@@H](CCCC)C(=O)N[C@@H](CC(C)C)C(=O)N[C@H](C(=O)NCC(N)=O)CSCC(=O)N[C@@H](Cc2ccc(O)cc2)C(=O)N(C)[C@@H](C)C(=O)N[C@@H](CC(N)=O)C(=O)N2CCC[C@H]2C(=O)N[C@@H](CNC[C@@H](O)[C@H](O)[C@@H](O)[C@@H](O)[C@H](O)CO)C(=O)N[C@@H](CC(C)C)C(=O)N2C[C@H](O)C[C@H]2C(=O)N[C@@H](Cc2c[nH]c3ccccc23)C(=O)N[C@@H](CCN)C(=O)N[C@@H](Cc2cn(CC(=O)O)c3ccccc23)C(=O)N1C [Example 2019] ({CH2CO}-Y[NMeA]NP[X49]L[Hyp]W[Dab][Trp(1-CH2COOH)][NMeNle][NMeNle]LCG-NH2; thioether N-14)	8.1
CCCC[C@H]1C(=O)N(C)[C@@H](CCCC)C(=O)N[C@@H](CC(C)C)C(=O)N[C@H](C(=O)NCC(N)=O)CSCC(=O)N[C@@H](Cc2ccc(O)cc2)C(=O)N(C)[C@@H](C)C(=O)N[C@@H](CC(N)=O)C(=O)N2CCC[C@H]2C(=O)N[C@@H](CNC2[C@@H](O)[C@@H](O)[C@@H](O)[C@H](O)[C@H]2O)C(=O)N[C@@H](CC(C)C)C(=O)N2C[C@H](O)C[C@H]2C(=O)N[C@@H](Cc2c[nH]c3ccccc23)C(=O)N[C@@H](CCN)C(=O)N[C@@H](Cc2cn(CC(=O)O)c3ccccc23)C(=O)N1C (stereo partly drawn) [Example 2020] ({CH2CO}-Y[NMeA]NP[X40]L[Hyp]W[Dab][Trp(1-CH2COOH)][NMeNle][NMeNle]LCG-NH2; thioether N-14)	5
CCCC[C@H]1C(=O)N(C)[C@@H](CCCC)C(=O)N[C@@H](CC(C)C)C(=O)N[C@H](C(=O)NCC(N)=O)CSCC(=O)N[C@@H](Cc2ccc(O)cc2)C(=O)N(C)[C@@H](C)C(=O)N[C@@H](CC(N)=O)C(=O)N2CCC[C@H]2C(=O)N[C@@H](CNC[C@@H](O)[C@@H](O)[C@H](O)[C@H](O)C(O)CO)C(=O)N[C@@H](CC(C)C)C(=O)N2C[C@H](O)C[C@H]2C(=O)N[C@@H](Cc2c[nH]c3ccccc23)C(=O)N[C@@H](CCNC[C@@H](O)[C@@H](O)[C@H](O)[C@H](O)C(O)CO)C(=O)N[C@@H](Cc2cn(CC(=O)O)c3ccccc23)C(=O)N1C (stereo partly drawn) [Example 2021] ({CH2CO}-Y[NMeA]NP[X50]L[Hyp]W[X51][Trp(1-CH2COOH)][NMeNle][NMeNle]LCG-NH2; thioether N-14)	8.9
CCCC[C@H]1C(=O)N(C)[C@@H](CCCC)C(=O)N[C@@H](CC(C)C)C(=O)N[C@H](C(=O)NCC(N)=O)CSCC(=O)N[C@@H](Cc2ccc(O)cc2)C(=O)N(C)[C@@H](C)C(=O)N[C@@H](CC(N)=O)C(=O)N2CCC[C@H]2C(=O)N[C@@H](CNC[C@@H](O)[C@@H](O)[C@@H](O)[C@H](O)CO)C(=O)N[C@@H](CC(C)C)C(=O)N2C[C@H](O)C[C@H]2C(=O)N[C@@H](Cc2c[nH]c3ccccc23)C(=O)N[C@@H](CCN)C(=O)N[C@@H](Cc2cn(CC(=O)O)c3ccccc23)C(=O)N1C [Example 2022] ({CH2CO}-Y[NMeA]NP[X8]L[Hyp]W[Dab][Trp(1-CH2COOH)][NMeNle][NMeNle]LCG-NH2; thioether N-14)	8.6
CCCC[C@H]1C(=O)N(C)[C@@H](CCCC)C(=O)N[C@@H](CC(C)C)C(=O)N[C@H](C(=O)NCC(N)=O)CSCC(=O)N[C@@H](Cc2ccc(O)cc2)C(=O)N(C)[C@@H](C)C(=O)N[C@@H](CC(N)=O)C(=O)N2CCC[C@H]2C(=O)N[C@@H](CNC[C@H](O)[C@H](O)[C@@H](O)[C@@H](O)CO)C(=O)N[C@@H](CC(C)C)C(=O)N2C[C@H](O)C[C@H]2C(=O)N[C@@H](Cc2c[nH]c3ccccc23)C(=O)N[C@@H](CCNC[C@H](O)[C@H](O)[C@@H](O)[C@@H](O)CO)C(=O)N[C@@H](Cc2cn(CC(=O)O)c3ccccc23)C(=O)N1C [Example 2023] ({CH2CO}-Y[NMeA]NP[X35]L[Hyp]W[X62][Trp(1-CH2COOH)][NMeNle][NMeNle]LCG-NH2; thioether N-14)	6.1
CCCC[C@H]1C(=O)N(C)[C@@H](CCCC)C(=O)N[C@@H](CC(C)C)C(=O)N[C@H](C(=O)NCC(N)=O)CSCC(=O)N[C@@H](Cc2ccc(O)cc2)C(=O)N(C)[C@@H](C)C(=O)N[C@@H](CC(N)=O)C(=O)N2CCC[C@H]2C(=O)N[C@@H](CNC[C@@H](O)[C@@H](O)[C@H](O)[C@H](O)CO)C(=O)N[C@@H](CC(C)C)C(=O)N2C[C@H](O)C[C@H]2C(=O)N[C@@H](Cc2c[nH]c3ccccc23)C(=O)N[C@@H](CCN)C(=O)N[C@@H](Cc2cn(CC(=O)O)c3ccccc23)C(=O)N1C [Example 2024] ({CH2CO}-Y[NMeA]NP[X3]L[Hyp]W[Dab][Trp(1-CH2COOH)][NMeNle][NMeNle]LCG-NH2; thioether N-14)	1.6

— patent US20230242585A1, “IMMUNOMODULATORS” (Bristol-Myers Squibb Company, priority 2020, published 2023)
